This passage reports AML samples resistant, Percent sensitive and N sensitive results from patent US20230285339A1, “THERAPIES FOR TREATING AML AND USES OF RARA AGONISTS, HYPOMETHYLATING AGENTS, AND BCL-2 INHIBITORS” (Syros Pharmaceuticals, Inc., priority 2020, published 2023).

For this test, the system named is AML samples. The test can be described thus: Beat AML ex vivo venetoclax sensitivity, proliferation assay on AML patient samples (AUC and IC50). It is filed as cell-based, human. How it is done: Venetoclax sensitivity in BeatAML: The BeatAML dataset a/so included ex vivo sensitivity analysis for a panel of 121 inhibitors, including venetoclax, in a proliferation assay on 248 of the AML samples measured by area under the curve (AUC) and IC50. Only some of the patient samples were queried for each inhibitor. Of the samples with at least 40% blasts, 90 were tested for venetoclax ex vivo sensitivity. To define the best possible association of gene expression with venetoclax AUC, we performed a logistic regression model with lasso regularization to predict venetoclax AUC from the expression of all expressed genes using the expression matrix quantile normalized with the TCGA dataset. The R package glmnet was used as described above in the section “Development of monocytic expression signature in TCGA.”
To define samples sensitive to venetoclax, we first identified an IC50 that could separate sensitive samples from insensitive samples, as follows. We consulted two references (Bogenberger et al., Oncotarget 8:107206-107222, 2017) and Ramsey et al. Cancer Discovery 8:1566-1581, 2018) that defined sensitive AML cells in the range of 20-60 nM and resistant AML cells around 1 μM, and we choose 100 nM as a threshold that splits this range. We then mapped 100 nM IC50 values from the BeatAML venetoclax ex vivo assay to AUC, which is a more robust quantitative measure of sensitivity, by selecting the AUC below which all samples have an IC50<100 nM, which led to the AUC threshold of 130. At this threshold, we found 35 AML samples sensitive to venetoclax and 55 AML samples resistant to venetoclax.
In the methods, RARA gene expression in non-APL AML was evaluated in the TCGA and Beat AML RNA-seq datasets. AUC of cell viability curves were used to evaluate ex vivo sensitivity to compounds, including venetoclax, in the Beat AML dataset. A monocytic MES was developed using the expression of monocytic and primitive RNA markers in the TCGA dataset to analyze the monocytic phenotype. The MES used a logistic regression model with lasso regularization to distinguish FAB M4/5 (monocytic) from FAB M0/1/2 (primitive) using 10-fold cross-validation with 85% sensitivity and 80% specificity. The MES was then applied to the RNA-seq datasets from Beat AML and AML blasts from ND unfit AML patients in the ongoing tamibarotene-plus-azacitidine trial (NCT02807558), in which RARA-positive patients were determined by an RT-qPCR-based biomarker clinical trial assay (CTA). The MES, RARA expression, and venetoclax resistance-associated features were compared using Spearman's rho correlation; the association of the MES with the RARA biomarker and with IWG clinical responses in tamibarotene plus Aza treated patients was evaluated.

SMILES strings stand for the structures.

As for `CC1(C)CCC(CN2CCN(c3ccc(C(=O)NS(=O)(=O)c4ccc(NCC5CCOCC5)c([N+](=O)[O-])c4)c(Oc4cnc5[nH]ccc5c4)c3)CC2)=C(c2ccc(Cl)cc2)C1` [venetoclax], the AML samples resistant (All 90 samples, AUC threshold 130) worked out at 55. The Percent sensitive by setting is: (All patients (90 AML samples), AUC threshold 130) 39%; (Monocytic AML patients (MES>0.5), N total 44) 11%; (Primitive AML patients, N total 46) 65%; (RARA-high patients, N total 21) 0%; (RARA-low patients, N total 69) 51%. In addition, the N sensitive is reported as 35 (All patients (90 AML samples, at least 40% blasts), sensitive = AUC below threshold of 130 (IC50<100 nM)); 30 (Primitive AML patients (MES<0.5), N total 46); 35 (RARA-low patients, N total 69).
